In ChEMBL document CHEMBL5230154, “Chemical probe of AHL modulators on quorum sensing in Gram-Negative Bacteria and as antiproliferative agents: A review” (Eur J Med Chem, 2021):
pEC50, pIC50: −log10 of the molar value.

Columns and labels:
[1] = Inhibition of quorum sensing system in Pseudomonas aeruginosa PA14 assessed as inhibition of pyocyanin production incubated for 17 hrs by spectrophotometric assay
Pseudomonas aeruginosa [2] = experiment: Inhibition of Pseudomonas aeruginosa MH602 harboring PlasB::gfp(ASV) reporter assessed as decrease in GFP expression at 125 uM incubated for 22 hrs by fluorescence microplate reader analysis
Pseudomonas aeruginosa [3] = experiment: Inhibition of Pseudomonas aeruginosa MH602 harboring PlasB::gfp(ASV) reporter assessed as decrease in GFP expression at 250 uM incubated for 22 hrs by fluorescence microplate reader analysis
[4] = Inhibition of quorum sensing system in Pseudomonas aeruginosa PAO1 assessed as inhibition of pyocyanin production at 250 uM incubated for 17 hrs by spectrophotometric analysis
Pseudomonas aeruginosa [5] = experiment: Inhibition of quorum sensing system in Pseudomonas aeruginosa MH602 expressing PlasB::gfp assessed as inhibition of GFP fluorescence expression at 250 uM incubated for 15 hrs by fluorescence microplate reader analysis
[6] = Inhibition of quorum sensing system in Pseudomonas aeruginosa PAO1 assessed as inhibition of pyocyanin production at 32 uM incubated for 17 hrs by spectrophotometric analysis
Pseudomonas aeruginosa [7] = experiment: Antagonist activity against quorum sensing system in Pseudomonas aeruginosa PAO-JP2 (plasI-LVAgfp) assessed as inhibition of 3-oxo-C12 HSL induced GFP expression at 100 uM incubated for 6 hrs in presence of 50 uM of 3-oxo-C12-D10 by fluorescence analysis; details: filed as antagonist
Pseudomonas aeruginosa [8] = experiment: Antagonist activity against quorum sensing system in Pseudomonas aeruginosa PAO-JP2 (plasI-LVAgfp) assessed as inhibition of 3-oxo-C12 HSL induced GFP expression at 100 uM incubated for 6 hrs in presence of 100 uM of 3-oxo-C12-D10 by fluorescence analysis; details: filed as antagonist
Pseudomonas aeruginosa [9] = experiment: Antagonist activity against quorum sensing system in Pseudomonas aeruginosa PAO-JP2 (plasI-LVAgfp) assessed as inhibition of 3-oxo-C12 HSL induced GFP expression at 100 uM incubated for 6 hrs in presence of 10 uM of 3-oxo-C12-D10 by fluorescence analysis; details: filed as antagonist
[10] = Inhibition of quorum sensing system in Pseudomonas aeruginosa MW1 assessed as inhibition of LasR expression incubated for 8 to 12 hrs in presence of 3-oxo-C12 HSL by fluorescence analysis
[11] = Inhibition of quorum sensing system in Pseudomonas aeruginosa MW1 assessed as inhibition of LasR expression at 33 uM incubated for 8 to 12 hrs in presence of 3-oxo-C12 HSL by fluorescence analysis; details: time 8-12 hrs
[12] = Agonist activity against RhlR in Escherichia coli expressing JLD271/pJN105R2/pSC11-rhlI using CPRG as substrate by spectrophotometric assay
[13] = molecular target: T1, HTH-type quorum-sensing regulator RhlR (Pseudomonas aeruginosa (strain ATCC 15692 / PAO1 / 1C / PRS 101 / LMG12228), UniProt P54292); experiment: Agonist activity against RhlR in Pseudomonas aeruginosa PAO-JP2 expressing prhlI-LVAgfp using CPRG as substrate by spectrophotometric assay
T1 sequence (P54292 whole entry): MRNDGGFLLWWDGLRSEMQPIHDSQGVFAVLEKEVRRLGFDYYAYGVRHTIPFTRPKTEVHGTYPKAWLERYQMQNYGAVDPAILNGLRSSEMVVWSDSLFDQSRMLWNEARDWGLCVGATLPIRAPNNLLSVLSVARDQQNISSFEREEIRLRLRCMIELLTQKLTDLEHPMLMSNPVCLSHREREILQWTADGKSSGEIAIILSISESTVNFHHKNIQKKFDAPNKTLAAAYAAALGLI

[14] = Inhibition of quorum sensing system in Pseudomonas aeruginosa PA14 assessed as inhibition of pyocyanin production by UV-vis spectrophotometric assay
Pseudomonas aeruginosa [15] = experiment: Anti-motility activity against Pseudomonas aeruginosa PAO1 NCTC 10332 assessed as reduction in swarming at 50 uM and measured after 16 hr by swarming assay; type: functional; set-up: scale not given: the % may be the effect or the level left
Pseudomonas aeruginosa [16] = experiment: Anti-motility activity against Pseudomonas aeruginosa PAO1 NCTC 10332 assessed as reduction in swimming at 50 uM and measured after 18 hr; type: functional; set-up: scale not given: the % may be the effect or the level left
[17] = Inhibition of quorum sensing system in Pseudomonas aeruginosa PAO1 assessed as inhibition of pqsR expression incubated for 4 hrs by RT-PCR analysis
Escherichia coli [18] = experiment: Inhibition of Escherichia coli MT102 harbouring pJBA132 expressing Gfp assessed as inhibition of GFP fluorescence expression at 62.5 uM incubated for 15 hrs by fluorescence microplate reader analysis
Pseudomonas aeruginosa [19] = experiment: Antagonist activity against quorum sensing system in Pseudomonas aeruginosa PAO-JP2 (plasI-LVAgfp) assessed as inhibition of 3-oxo-C12 HSL induced GFP expression at 100 uM incubated for 6 hrs in presence of 1 uM of 3-oxo-C12 HSL by fluorescence analysis
[20] = Inhibition of quorum sensing system in Pseudomonas aeruginosa PAO1 assessed as inhibition of elastase production at 15 uM incubated for 12 hrs by Congo red dye based spectrophotometric assay
[21] = Inhibition of quorum sensing system in Pseudomonas aeruginosa PAO1 assessed as inhibition of pyocyanin production at 15 uM incubated for 12 hrs by spectrophotometric assay
[22] = Inhibition of quorum sensing system in Pseudomonas aeruginosa PAO1 assessed as decrease in lasI expression at 15 uM incubated for 12 hrs by real-time fluorescent quantitative PCR analysis
[23] = Inhibition of quorum sensing system in Pseudomonas aeruginosa PAO1 assessed as decrease in pqsR expression at 15 uM incubated for 12 hrs by real-time fluorescent quantitative PCR analysis
Pseudomonas aeruginosa [24] = experiment: Inhibition of biofilm formation in Pseudomonas aeruginosa PAO1 incubated for 12 hrs by crystal violet staining based analysis; type: functional
[25] = Inhibition of quorum sensing system in Pseudomonas aeruginosa PAO1 assessed as inhibition of rhamnolipid production at 15 uM incubated for 12 hrs by spectrophotometric assay
[26] = Inhibition of quorum sensing system in Pseudomonas aeruginosa PAO1 assessed as decrease in pqsA expression at 15 uM incubated for 12 hrs by real-time fluorescent quantitative PCR analysis
[27] = Inhibition of quorum sensing system in Pseudomonas aeruginosa PAO1 assessed as decrease in rhlR expression at 15 uM incubated for 12 hrs by real-time fluorescent quantitative PCR analysis
[28] = Inhibition of quorum sensing system in Pseudomonas aeruginosa PAO1 assessed as decrease in lasA expression at 15 uM incubated for 12 hrs by real-time fluorescent quantitative PCR analysis
[29] = Antagonist activity against quorum sensing system in Pseudomonas aeruginosa PAO1 transfected with lasB-lacZ reporter gene assessed as inhibition of beta-galactosidase activity incubated for 24 hrs by elastin-Congo red assay
Escherichia coli [30] = experiment: Inhibition of Escherichia coli MT102 harbouring pJBA132 expressing Gfp assessed as inhibition of GFP fluorescence expression at 250 uM incubated for 15 hrs by fluorescence microplate reader analysis

For O=C(CCCOc1cccc(Br)c1)NC1CCSC1=O (stereo unspecified), the pIC50 [1] was 5.10.
Molecule C#CNC(=O)C(=O)c1cc(Br)ccc1NC(=O)CCl has an inhibition (Pseudomonas aeruginosa [2]) of 65% and an inhibition (Pseudomonas aeruginosa [3]) of 31.8%.
Nc1cccc(N2CC(Cl)=C(Cl)C2=O)c1 gave an inhibition [4] of 90%, an inhibition (Pseudomonas aeruginosa [5]) of 80.4% and an inhibition [6] of 80%.
Molecule O=C1C(Cl)=C(Cl)CN1c1ccccc1 has an inhibition [4] of 90%, an inhibition (Pseudomonas aeruginosa [5]) of 81.7% and an inhibition [6] of 80%.
Molecule O=C(CCCOc1cccc(Cl)c1)NC1CCSC1=O (stereo unspecified) has a pIC50 [1] of 5.05.
CCCCCCCCCC(=O)CC(=O)Nc1ccccc1O showed an inhibition (Pseudomonas aeruginosa [7]) of 80%, an inhibition (Pseudomonas aeruginosa [8]) of 90% and an inhibition (Pseudomonas aeruginosa [9]) of 60%.
Work on CCCCCCCCCCCCn1nnc(CC(=O)O)n1 yielded a pIC50 [10] of 4.52 and an inhibition [11] of 50%.
With O=C(CC1CCC1)N[C@H]1CCOC1=O the pEC50 [12] was 5.75 and the pEC50 [13] was 5.85.
O=C1C(Cl)=C(Cl)CN1c1cccc(O)c1 gave an inhibition [4] of 90%, an inhibition (Pseudomonas aeruginosa [5]) of 78% and an inhibition [6] of 80%.
CC(C)CCCC(=O)N[C@H]1CCOC1=O gave a pEC50 [12] of 5.85 and a pEC50 [13] of 5.99.
In the case of O=C1C(Br)=C(Br)CN1c1ccccc1, the inhibition [4] was 90%, the inhibition (Pseudomonas aeruginosa [5]) was 80.7% and the inhibition [6] was 80%.
In the case of Clc1ccc2c(NCCCCCCCCNCc3cc4ccccc4s3)ccnc2c1, the pIC50 [14] was 4.60, the Activity (Pseudomonas aeruginosa [15]) was 40% and the Activity (Pseudomonas aeruginosa [16]) was 40%. The pIC50 [17] was 4.52.
With C#CCNC(=O)C(=O)c1ccccc1NC(=O)CCl the inhibition (Escherichia coli [18]) was 56.5%.
CCCCCCCCCNC(=O)CC(=O)c1ccccc1 showed a pIC50 [10] of 5.00 and an inhibition [11] of 75%.
CCCCCCCCCCCC(=O)NC1CCC[C@@H]1O (stereo partly specified) showed an inhibition (Pseudomonas aeruginosa [19]; filed as antagonist) of 70%.
O=C(CSC(=S)N[C@H]1CCOC1=O)NC(=O)Nc1cccc2ccccc12 showed an inhibition [20] of 14.3%, an inhibition [21] of 33% and an inhibition [22] of 38.9%. For the same molecule, the inhibition [23] was 47.9%, the “inhibition (INH)” value (Pseudomonas aeruginosa [24]) was 35.3% and the inhibition [25] was 20.8%. For the same molecule, the inhibition [26] was 67.7%, the inhibition [27] was 55.5% and the inhibition [28] was 71%.
With CCCCCCCC(=O)NC1CCCC1 the pIC50 [29] was 3.60.
In the case of O=C1Cn2nncc2CNC(=O)C(=O)c2ccccc2NC(=O)Cn2nncc2CNC(=O)C(=O)c2ccccc2N1, the inhibition (Escherichia coli [30]) was 18.7% and the inhibition (Pseudomonas aeruginosa [3]) was 74%.
CCCCCCCCCCCC(=O)NC1CCCCC1=O (stereo unspecified) showed an inhibition (Pseudomonas aeruginosa [19]) of 30%.
